IC50 data for 23 molecules are collected here from patent US9884063B2, “Amido-substituted azole compounds” (Bayer Pharma Aktiengesellschaft, priority 2014, dated 2018).

Bounds are passed on as bounds.

This test addresses T1, TNKS2 (Homo sapiens, UniProt Q9H2K2).
T1 sequence (Q9H2K2 1-1166): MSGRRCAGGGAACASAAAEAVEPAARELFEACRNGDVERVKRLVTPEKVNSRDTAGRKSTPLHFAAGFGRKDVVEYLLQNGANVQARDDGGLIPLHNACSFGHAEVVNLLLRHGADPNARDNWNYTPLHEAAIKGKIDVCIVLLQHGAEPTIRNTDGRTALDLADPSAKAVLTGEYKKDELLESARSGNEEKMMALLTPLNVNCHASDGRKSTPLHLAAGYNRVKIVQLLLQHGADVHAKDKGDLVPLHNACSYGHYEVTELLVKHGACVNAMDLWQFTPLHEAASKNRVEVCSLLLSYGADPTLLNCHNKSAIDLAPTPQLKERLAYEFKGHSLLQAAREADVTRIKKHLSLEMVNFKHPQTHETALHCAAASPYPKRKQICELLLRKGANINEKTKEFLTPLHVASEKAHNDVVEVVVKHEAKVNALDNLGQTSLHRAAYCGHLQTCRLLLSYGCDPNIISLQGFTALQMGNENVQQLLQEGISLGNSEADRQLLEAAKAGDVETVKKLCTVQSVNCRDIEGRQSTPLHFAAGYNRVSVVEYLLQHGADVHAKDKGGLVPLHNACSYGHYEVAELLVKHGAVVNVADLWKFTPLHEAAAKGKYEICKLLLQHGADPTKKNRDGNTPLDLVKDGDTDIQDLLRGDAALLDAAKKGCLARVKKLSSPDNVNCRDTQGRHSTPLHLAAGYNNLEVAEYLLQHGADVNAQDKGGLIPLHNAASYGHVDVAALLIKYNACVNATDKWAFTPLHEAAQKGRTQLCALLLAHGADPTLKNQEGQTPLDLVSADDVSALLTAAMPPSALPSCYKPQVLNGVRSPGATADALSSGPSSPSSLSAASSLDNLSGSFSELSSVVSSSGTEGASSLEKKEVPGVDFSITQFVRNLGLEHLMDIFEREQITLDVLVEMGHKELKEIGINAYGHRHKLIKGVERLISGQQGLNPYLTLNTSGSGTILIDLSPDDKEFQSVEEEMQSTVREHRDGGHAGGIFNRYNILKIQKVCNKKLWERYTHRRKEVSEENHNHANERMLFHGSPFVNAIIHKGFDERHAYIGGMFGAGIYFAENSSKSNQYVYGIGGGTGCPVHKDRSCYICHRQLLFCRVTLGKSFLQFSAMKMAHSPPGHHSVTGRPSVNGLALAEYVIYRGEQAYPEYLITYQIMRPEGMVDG
The experiment in a line: TNKS2 Assay 1 (TNKS2 Histone Ribosylation Assay Kit, biotin-labeled NAD+). The test is classed as biochemical. As to conditions: chemiluminescent readout, 384 well. The protocol: The potency of the compounds according to the invention was assessed applying an in vitro inhibition assay. The TNKS2 catalyzed NAD^+-dependent ribosylation of a suitable protein substrate was detected using a commercially available biotin/streptavidin binding based assay format [TNKS2 Histone Ribosylation Assay Kit (Biotin-labeled NAD+), Catalog #80572; BPS Bioscience, San Diego, USA]. Here, the incorporation of a biotin-labeled NAD+ during the TNKS2 catalyzed ribosylation reaction was detected with a streptavidin-HRP coupled chemi-luminescent readout. The intensity of the readout signal is proportional to the incorporated NAD^+. Inhibition of TNKS2 leads to a decreased incorporation of NAD^+ and consequently to a lower readout signal intensity. The concentration of a test compound which inhibits the enzyme activity by 50% (corresponds to half of the normed readout signal intensity) is reported as IC50.
The assay was conducted in a 384 well MTP format according to the manufacturer's protocol [bpsbioscience.com/poly-adp-ribose-polymerase/assay-kit/tnks2-histone-ribosylation-assay-kit-biotin-labeled-nad-80572 referencing: Brown, J. A., Marala, R. B. J. Pharmacol. Toxicol. Methods 2002 47:137-41]. and using a BMG Pherastar MTP reader [BMG-Labtech, Offenburg, Germany].

`CNC(=O)c1nc[nH]c1C(=O)Nc1ccc(NC(=O)c2ccncc2Cl)cc1` [Example 6, N^5-{4-[(3-chloroisonicotinoyl)amino]phenyl}-N^4-methyl-1H-imidazole-4,5-dicarboxamide] had an IC50 (Table 2) of 50 nM and an IC50 (first table) of 50 nM.

With `CC(NC(=O)c1ncoc1C(=O)Nc1ccc(NC(=O)c2ccc(F)cc2Cl)cc1)c1ccccc1` (stereo not drawn) [Example 8, N^5-{4-[(2-chloro-4-fluorobenzoyl)amino]phenyl}-N^4-(1-phenylethyl)-1,3-oxazole-4,5-dicarboxamide], half-maximal inhibition (Table 2) (IC50) was put at 7000 nM and the half-maximal inhibitory concentration (IC50) (first table) is 7000 nM.

For `CCC(C)NC(=O)c1ncoc1C(=O)Nc1ccc(NC(=O)c2ccc(F)cc2Cl)cc1` (stereo not drawn) [Example 7, N^4-sec-butyl-N^5-{4-[(2-chloro-4-fluorobenzoyl)amino]phenyl}-1,3-oxazole-4,5-dicarboxamide], the 50% inhibitory concentration (IC50) amounted to 19000 nM (Table 2) and 19100 nM (first table).

`CN(C)C(=O)c1nc[nH]c1C(=O)Nc1ccc(NC(=O)c2ccc(F)cc2Cl)cc1` [Example 24, N^5-{4-[(2-chloro-4-fluorobenzoyl)amino]phenyl}-N^4,N^4-dimethyl-1H-imidazole-4,5-dicarboxamide]: the midpoint of inhibition (Table 2), the IC50, lay at 500 nM and 500 nM corresponded to half-maximal inhibition (first table) (IC50).

For the molecule `CNC(=O)c1[nH]cnc1C(=O)Nc1ccc(NC(=O)c2cc(Cl)sc2Cl)cc1` [Example 213, N^4-(4-{[(2,5-dichloro-3-thienyl)carbonyl]amino}phenyl)-N^5-methyl-1H-imidazole-4,5-dicarboxamide], the IC50 (Table 2) is more than 100000 nM.

Take `CNC(=O)c1nc[nH]c1C(=O)Nc1ccc(NC(=O)c2ccc(OCCN3CCN(C)CC3)cc2Cl)cc1` [Example 28, N^5-[4-({2-chloro-4-[2-(4-methylpiperazin-1-yl)ethoxy]benzoyl}amino)phenyl]-N^4-methyl-1H-imidazole-4,5-dicarboxamide]: the 50% inhibitory concentration (IC50) reads like this: (Table 2) 60 nM; (first table) 60 nM.

Turning to `CNC(=O)c1nc[nH]c1C(=O)Nc1ccc(NC(=O)c2ccccc2C)cc1` [Example 19, N^4-methyl-N^5-{4-[(2-methylbenzoyl)amino]phenyl}-1H-imidazole-4,5-dicarboxamide], the IC50 reads like this: (Table 2) 290 nM; (first table) 290 nM.

Regarding `CNC(=O)c1nc[nH]c1C(=O)Nc1ccc(NC(=O)c2c(Cl)cccc2Cl)cc1` [Example 26, N^5-{4-[(2,6-dichlorobenzoyl)amino]phenyl}-N^4-methyl-1H-imidazole-4,5-dicarboxamide], the 50% inhibitory concentration (IC50) came to 160 nM (Table 2) and 160 nM (first table).

Take `CNC(=O)c1nc[nH]c1C(=O)Nc1ccc(NC(=O)c2ccc(F)cc2Cl)cc1` [Example 12, N^5-{4-[(2-chloro-4-fluorobenzoyl)amino]phenyl}-N^4-methyl-1H-imidazole-4,5-dicarboxamide]: the IC50 amounted to 20 nM (Table 2) and 20 nM (first table).

In the case of `CC(C)NC(=O)c1ncoc1C(=O)Nc1ccc(NC(=O)c2ccc(F)cc2Cl)cc1` [Example 15, N^5-{4-[(2-chloro-4-fluorobenzoyl)amino]phenyl}-N^4-isopropyl-1,3-oxazole-4,5-dicarboxamide], the half-inhibitory concentration (IC50) reads like this: (Table 2) 1100 nM; (first table) 1140 nM.

The molecule `CNC(=O)c1nc[nH]c1C(=O)Nc1ccc(NC(=O)c2cccc(Cl)c2Cl)cc1` [Example 1, N^5-{4-[(2,3-dichlorobenzoyl)amino]phenyl}-N^4-methyl-1H-imidazole-4,5-dicarboxamide] returned an IC50 (Table 2) of 20 nM and a concentration for half-maximal inhibition (IC50) (first table) of 20 nM.

Turning to `CNC(=O)c1nc[nH]c1C(=O)Nc1ccc(NC(=O)c2ccc(OCCN(C)C)cc2Cl)cc1` [Example 25, N^5-[4-({2-chloro-4-[2-(dimethylamino)ethoxy]benzoyl}amino)phenyl]-N^4-methyl-1H-imidazole-4,5-dicarboxamide], the IC50 came to 60 nM (Table 2) and 60 nM (first table).

`CNC(=O)c1nc[nH]c1C(=O)Nc1ccc(NC(=O)c2ccc(Cl)cc2Cl)cc1` [Example 9, N^5-{4-[(2,4-dichlorobenzoyl)amino]phenyl}-N^4-methyl-1H-imidazole-4,5-dicarboxamide]: the concentration for half-maximal inhibition (IC50) is, setting by setting: (Table 2) 30 nM; (first table) 20 nM.

As to `COC(=O)c1ncoc1C(=O)Nc1ccc(NC(=O)c2ccc(F)cc2Cl)cc1` [Example 14, Methyl 5-({4-[(2-chloro-4-fluorobenzoyl)amino]phenyl}carbamoyl)-1,3-oxazole-4-carboxylate], the IC50 is, setting by setting: (Table 2) 300 nM; (first table) 300 nM.

As to `CNC(=O)c1nc[nH]c1C(=O)Nc1ccc(NC(=O)c2ccc(F)cc2)cc1` [Example 20, N^5-{4-[(4-fluorobenzoyl)amino]phenyl}-N^4-methyl-1H-imidazole-4,5-dicarboxamide], the concentration for half-maximal inhibition (IC50) was determined as 1700 nM (Table 2) and 1700 nM (first table).

`CC(C)NC(=O)c1nc[nH]c1C(=O)Nc1ccc(NC(=O)c2ccc(F)cc2Cl)cc1` [Example 10, N^5-{4-[(2-chloro-4-fluorobenzoyl)amino]phenyl}-N^4-isopropyl-1H-imidazole-4,5-dicarboxamide]: the 50% inhibitory concentration (IC50) (Table 2) was determined as 230 nM and half-maximal inhibition (first table) (IC50) was put at 230 nM.

As for `CNC(=O)c1nc[nH]c1C(=O)Nc1ccc(NC(=O)c2ccc(F)cc2Cl)c(C)c1` [Example 5, N^5-{4-[(2-chloro-4-fluorobenzoyl)amino]-3-methylphenyl}-N^4-methyl-1H-imidazole-4,5-dicarboxamide], the IC50 runs as follows: (Table 2) 470 nM; (first table) 470 nM.

`CNC(=O)c1nc[nH]c1C(=O)Nc1ccc(NC(=O)c2ccc(F)cc2Cl)nc1` [Example 16, N^5-{6-[(2-chloro-4-fluorobenzoyl)amino]pyridin-3-yl}-N^4-methyl-1H-imidazole-4,5-dicarboxamide]: it took 40 nM to reach half-maximal inhibition (Table 2) (IC50) and the half-maximal inhibitory concentration (IC50) (first table) came out at 40 nM.

The molecule `CNC(=O)c1ncoc1C(=O)Nc1ccc(NC(=O)c2ccc(F)cc2Cl)cc1` [Example 11, N^5-{4-[(2-chloro-4-fluorobenzoyl)amino]phenyl}-N^4-methyl-1,3-oxazole-4,5-dicarboxamide] returned a 50% inhibitory concentration (IC50) (Table 2) of 90 nM and a half-inhibitory concentration (IC50) (first table) of 120 nM.

As for `CNC(=O)c1nc[nH]c1C(=O)Nc1ccc(NC(=O)c2ccc(N(C)C)cc2Cl)cc1` [Example 4, N^5-(4-{[2-chloro-4-(dimethylamino)benzoyl]amino}phenyl)-N^4-methyl-1H-imidazole-4,5-dicarboxamide], the IC50 is, setting by setting: (Table 2) 90 nM; (first table) 90 nM.

As for `O=C(Nc1ccc(NC(=O)c2[nH]cnc2C(=O)NCC(F)(F)F)cc1)c1ccc(F)cc1Cl` [Example 30, N^4-{4-[(2-chloro-4-fluorobenzoyl)amino]phenyl}-N^5-(2,2,2-trifluoroethyl)-1H-imidazole-4,5-dicarboxamide], the IC50 is 70 nM (Table 2) and 70 nM (first table).

On to `CNC(=O)c1nc[nH]c1C(=O)Nc1ccc(NC(=O)c2c(-c3ccccc3)nn(C)c2Cl)cc1` [Example 17, N^5-(4-{[(5-chloro-1-methyl-3-phenyl-1H-pyrazol-4-yl)carbonyl]amino}phenyl)-N^4-methyl-1H-imidazole-4,5-dicarboxamide], for which 2200 nM corresponded to half-maximal inhibition (Table 2) (IC50) and the IC50 (first table) is 2200 nM.

The molecule `CNC(=O)c1nc[nH]c1C(=O)Nc1ccc(NC(=O)c2c(C)cc(F)cc2C)cc1` [Example 23, N^5-{4-[(4-fluoro-2,6-dimethylbenzoyl)amino]phenyl}-N^4-methyl-1H-imidazole-4,5-dicarboxamide] had an IC50 (Table 2) of 340 nM and a concentration for half-maximal inhibition (IC50) (first table) of 340 nM.

The IC50 is the concentration at which inhibition is half-maximal.
